According to BindingDB's records for doi:10.1007/s002100000312 (Biocentre Niederursel, 2000):

Legend:
P2X purinoceptor 2 = biological target: T1, P2X purinoceptor 2 (Rattus norvegicus, UniProt P49653)
T1 sequence (P49653 whole entry): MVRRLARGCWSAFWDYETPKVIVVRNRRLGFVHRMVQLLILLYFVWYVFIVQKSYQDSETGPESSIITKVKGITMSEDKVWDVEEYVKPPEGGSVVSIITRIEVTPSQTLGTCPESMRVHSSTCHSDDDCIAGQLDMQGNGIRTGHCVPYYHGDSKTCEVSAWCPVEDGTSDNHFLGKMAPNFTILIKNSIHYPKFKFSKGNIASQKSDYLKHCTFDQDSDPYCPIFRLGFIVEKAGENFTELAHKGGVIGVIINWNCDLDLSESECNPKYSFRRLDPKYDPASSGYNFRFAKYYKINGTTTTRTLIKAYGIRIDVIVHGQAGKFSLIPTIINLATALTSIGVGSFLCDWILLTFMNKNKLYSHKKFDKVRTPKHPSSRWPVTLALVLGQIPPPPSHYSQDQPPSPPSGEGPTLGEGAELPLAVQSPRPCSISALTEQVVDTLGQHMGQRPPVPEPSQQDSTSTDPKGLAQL

P2X purinoceptor 1 [1] = biological target: T2, P2X purinoceptor 1 (Rattus norvegicus, UniProt P47824)
T2 sequence (P47824 whole entry): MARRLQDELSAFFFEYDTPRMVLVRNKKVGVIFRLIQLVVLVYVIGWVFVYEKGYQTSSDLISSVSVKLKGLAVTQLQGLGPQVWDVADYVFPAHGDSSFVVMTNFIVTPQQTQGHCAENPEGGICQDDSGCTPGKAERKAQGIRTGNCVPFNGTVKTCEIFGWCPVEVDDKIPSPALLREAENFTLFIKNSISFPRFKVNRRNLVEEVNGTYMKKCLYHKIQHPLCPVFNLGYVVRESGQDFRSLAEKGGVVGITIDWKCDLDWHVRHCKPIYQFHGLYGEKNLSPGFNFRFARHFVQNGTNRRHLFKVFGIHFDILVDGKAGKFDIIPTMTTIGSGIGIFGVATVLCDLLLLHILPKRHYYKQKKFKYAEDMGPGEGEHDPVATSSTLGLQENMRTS

P2X purinoceptor 4 = biological target: T3, P2X purinoceptor 4 (Homo sapiens, UniProt Q99571)
T3 sequence (Q99571 whole entry): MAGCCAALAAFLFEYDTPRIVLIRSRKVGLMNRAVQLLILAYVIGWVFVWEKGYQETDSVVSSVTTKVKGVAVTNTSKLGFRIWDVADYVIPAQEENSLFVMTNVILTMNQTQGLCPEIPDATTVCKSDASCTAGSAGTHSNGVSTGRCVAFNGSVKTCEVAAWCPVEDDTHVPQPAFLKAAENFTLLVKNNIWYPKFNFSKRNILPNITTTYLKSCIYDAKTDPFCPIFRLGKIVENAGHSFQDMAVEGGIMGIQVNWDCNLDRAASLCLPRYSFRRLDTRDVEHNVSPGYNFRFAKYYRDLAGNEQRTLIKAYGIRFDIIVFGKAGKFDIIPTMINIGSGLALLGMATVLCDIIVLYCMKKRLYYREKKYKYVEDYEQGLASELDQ

P2X purinoceptor 3 = biological target: T4, P2X purinoceptor 3 (Rattus norvegicus, UniProt P49654)
T4 sequence (P49654 whole entry): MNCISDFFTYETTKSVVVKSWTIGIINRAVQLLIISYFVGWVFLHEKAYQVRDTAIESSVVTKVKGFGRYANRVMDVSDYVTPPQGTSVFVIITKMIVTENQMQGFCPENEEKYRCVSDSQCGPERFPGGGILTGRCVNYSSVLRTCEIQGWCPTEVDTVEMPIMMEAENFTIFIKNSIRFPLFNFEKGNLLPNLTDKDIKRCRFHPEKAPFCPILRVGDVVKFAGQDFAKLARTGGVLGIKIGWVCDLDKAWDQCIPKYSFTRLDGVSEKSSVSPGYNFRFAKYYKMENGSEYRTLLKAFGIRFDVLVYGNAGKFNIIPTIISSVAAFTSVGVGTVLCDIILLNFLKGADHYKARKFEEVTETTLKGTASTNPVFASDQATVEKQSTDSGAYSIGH

P2X purinoceptor 1 [2] = biological target: T5, P2X purinoceptor 1 (Homo sapiens, UniProt P51575)
T5 sequence (P51575 whole entry): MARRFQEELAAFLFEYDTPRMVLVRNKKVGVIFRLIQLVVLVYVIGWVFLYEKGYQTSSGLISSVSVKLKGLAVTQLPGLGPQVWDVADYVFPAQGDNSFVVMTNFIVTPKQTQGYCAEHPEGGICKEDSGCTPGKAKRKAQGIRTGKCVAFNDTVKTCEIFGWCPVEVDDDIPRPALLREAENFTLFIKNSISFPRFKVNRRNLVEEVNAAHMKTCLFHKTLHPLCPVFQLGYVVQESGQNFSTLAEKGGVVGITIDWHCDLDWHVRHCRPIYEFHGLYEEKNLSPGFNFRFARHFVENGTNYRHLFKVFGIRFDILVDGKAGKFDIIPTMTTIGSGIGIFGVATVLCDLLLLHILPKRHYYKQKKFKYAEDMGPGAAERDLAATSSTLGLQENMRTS

P2X purinoceptor 7 = biological target: T6, P2X purinoceptor 7 (Homo sapiens, UniProt Q99572)
T6 sequence (Q99572 whole entry): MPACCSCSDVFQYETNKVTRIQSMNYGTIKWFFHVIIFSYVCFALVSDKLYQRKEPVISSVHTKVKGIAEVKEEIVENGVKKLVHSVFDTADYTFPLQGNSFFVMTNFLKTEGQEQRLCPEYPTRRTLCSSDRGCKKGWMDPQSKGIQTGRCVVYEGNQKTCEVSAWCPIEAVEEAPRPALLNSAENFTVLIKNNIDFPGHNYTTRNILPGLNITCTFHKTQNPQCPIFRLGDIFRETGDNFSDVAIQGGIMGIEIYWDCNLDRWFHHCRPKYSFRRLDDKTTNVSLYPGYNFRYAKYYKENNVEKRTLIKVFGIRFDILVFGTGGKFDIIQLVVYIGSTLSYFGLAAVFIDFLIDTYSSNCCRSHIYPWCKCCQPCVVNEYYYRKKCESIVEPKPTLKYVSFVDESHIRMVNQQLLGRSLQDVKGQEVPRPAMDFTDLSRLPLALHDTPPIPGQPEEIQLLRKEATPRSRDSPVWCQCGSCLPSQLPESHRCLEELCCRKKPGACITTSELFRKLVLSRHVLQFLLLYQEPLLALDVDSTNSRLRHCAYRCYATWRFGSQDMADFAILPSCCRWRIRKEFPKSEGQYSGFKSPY

Ki (P2X purinoceptor 2) [µM] | Ki (P2X purinoceptor 1 [1]) [µM] | Ki (P2X purinoceptor 4) [µM] | Ki (P2X purinoceptor 3) [µM] | Ki (P2X purinoceptor 1 [2]) [µM] | Ki (P2X purinoceptor 7) [µM] | SMILES
> 10 | 1 | > 10 | 1 | – | – | O=C(Nc1cccc(Nc2ccc(S(=O)(=O)O)c3cc(S(=O)(=O)O)cc(S(=O)(=O)O)c23)c1)Nc1cccc(Nc2ccc(S(=O)(=O)O)c3cc(S(=O)(=O)O)cc(S(=O)(=O)O)c23)c1 [NSC_5311313]
> 10 | 0.05 | 5 | > 10 | – | – | Cc1ccc(C(=O)Nc2ccc(S(=O)(=O)O)c3cc(S(=O)(=O)O)cc(S(=O)(=O)O)c23)cc1NC(=O)c1cccc(NC(=O)Nc2cccc(C(=O)Nc3cc(C(=O)Nc4ccc(S(=O)(=O)O)c5cc(S(=O)(=O)O)cc(S(=O)(=O)O)c45)ccc3C)c2)c1 [suramin]
> 10 | 1 | > 10 | 1 | 1 | > 10 | O=C(Nc1ccc(C(=O)Nc2ccc(C(=O)Nc3ccc(S(=O)(=O)O)c4cc(S(=O)(=O)O)cc(S(=O)(=O)O)c34)cc2)cc1)Nc1ccc(C(=O)Nc2ccc(C(=O)Nc3ccc(S(=O)(=O)O)c4cc(S(=O)(=O)O)cc(S(=O)(=O)O)c34)cc2)cc1 [CAS_5311315]
